In PMC8870237, “Improved Multimodal Tumor Necrosis Imaging with IRDye800CW-DOTA Conjugated to an Albumin-Binding Domain” (Cancers, 2022):

Columns and labels:
4T1-Luc2 tumors = experiment: SPECT/CT tumor necrosis imaging, quantified tumor uptake; assay type: in vivo, mouse; conditions: 4T1-Luc2 tumor-bearing mice, 24 h p.i.
Protocol: The 4T1-Luc2 cells (1.0 × 10^5) suspended in 15 µL PBS were inoculated bilaterally in 16 mice in four groups of four animals each. Nine days later, the tumor-bearing mice were injected with [^111In]3 (20 MBq, 2 nmol, in 200 µL PBS) into the tail vein, after which imaging was performed at timepoints 6, 24, 48, and 72 h post-injection (p.i.) under isoflurane anesthesia (4% induction, 1.5 to 2% maintenance in 100% O2), whilst maintaining the body temperature constant. First, FLI imaging was performed with a 730 nm excitation and 760 nm emission filter for 400 ms with 4 × 4 binning. Then, the mice received an intraperitoneal injection of D-luciferin (150 mg/kg) maintaining the position of the mice in the bed unaltered, and BLI imaging was performed with an open filter for 400 ms with 4 × 4 binning. Full body (head to tail base) SPECT images of the 5 cm axial field of view were obtained over a total scan time of 30 min, followed by a 2 min full-body CT. After imaging, the mice were euthanized for ex vivo analysis.
Acquired SPECT and PET images were reconstructed using SR-OSEM with 9 iterations and 128 subsets on a 36 × 36 × 35 mm matrix with 0.80 mm isotropic voxels. For the PET images, a decay correction of 109.7 min was applied. The PET and SPECT images were superposed with CT. The images were further analyzed in Pi-Mod. […]

EMT6-Luc2 tumors = experiment: Tumor uptake in EMT6-Luc2 tumor-bearing mice; assay type: in vivo, mouse; conditions: untreated, 24 h p.i., ±SEM
Protocol: The quadruple modality imaging procedure is illustrated in Figure S21. The tumor-bearing mice were injected with [^111In]3 (20 MBq, 2 nmol) in 200 µL PBS into the tail vein. The following day, the mice fasted for four hours before they were injected with [^18F]FDG (10 MBq, 200 µL) in PBS. At 24 h p.i. of [^111In]3 and 1 h p.i. of [^18F]FDG, FLI imaging was performed with a 730 nm excitation and 760 nm emission filter for 400 ms with 4 × 4 binning. Then, the mice received an intraperitoneal injection of D-luciferin (150 mg/kg) maintaining the position of the mice in the bed unaltered. During the onset of the bioluminescence signal, PET/SPECT imaging was performed of the tumors with a 2 cm axial field of view over a total scan time of 30 min, followed by a 2 min full-body CT. Finally, BLI imaging was performed with an open filter for 400 ms with 4 × 4 binning. Imaging was performed under isoflurane anesthesia whilst maintaining the body temperature constant. […]
After the final imaging experiments, the mice were sacrificed by cervical dislocation, tumors and organs were collected, weighted, and activity was accurately quantified by γ-counting to determine radioactivity uptake in the percentage of injected dose per gram (%ID/g). […] The sections were stored at −20 °C for the radioactivity to decay, before 800 nm fluorescence imaging and histochemical dead cell staining.

MCF7-Luc2 tumors = experiment: Tumor uptake in doxorubicin- or saline-treated MCF7-Luc2 tumor-bearing mice; assay type: in vivo, mouse; conditions: 24 h p.i., ±SEM
Protocol: The quadruple modality imaging procedure is illustrated in Figure S21. The tumor-bearing mice were injected with [^111In]3 (20 MBq, 2 nmol) in 200 µL PBS into the tail vein. The following day, the mice fasted for four hours before they were injected with [^18F]FDG (10 MBq, 200 µL) in PBS. At 24 h p.i. of [^111In]3 and 1 h p.i. of [^18F]FDG, FLI imaging was performed with a 730 nm excitation and 760 nm emission filter for 400 ms with 4 × 4 binning. Then, the mice received an intraperitoneal injection of D-luciferin (150 mg/kg) maintaining the position of the mice in the bed unaltered. During the onset of the bioluminescence signal, PET/SPECT imaging was performed of the tumors with a 2 cm axial field of view over a total scan time of 30 min, followed by a 2 min full-body CT. Finally, BLI imaging was performed with an open filter for 400 ms with 4 × 4 binning. Imaging was performed under isoflurane anesthesia whilst maintaining the body temperature constant.
Six mice were inoculated bilaterally with MCF7-Luc2 cells (3.0 × 10^6), suspended in 30 µL PBS:Matrigel (1:1; v/v). On days 14, 16, and 18 after inoculation, the tumor-bearing mice received either doxorubicin (5 mg/kg, Janssen Pharmaceuticals, Beerse, Belgium) or a saline solution via i.v. injection. On days 21 and 22 after inoculation, the mice underwent the FLI, BLI, and PET/SPECT/CT imaging procedure (vide supra).
After the final imaging experiments, the mice were sacrificed by cervical dislocation, tumors and organs were collected, weighted, and activity was accurately quantified by γ-counting to determine radioactivity uptake in the percentage of injected dose per gram (%ID/g). After γ-counting, the tumors were frozen in liquid nitrogen and stored at −80 °C overnight. Adjacent cryosections (10 µm) were prepared of the tumor centers for autoradiography. The sections were stored at −20 °C for the radioactivity to decay, before 800 nm fluorescence imaging and histochemical dead cell staining.

4T1-Luc2 cells = experiment: In vitro dead/alive cell binding assay (fluorescence and γ-counting); assay type: cell-based, mouse; conditions: indium-111 labeled, 100 nM, 2.5 MBq/nmol, EtOH-killed or alive 4T1-Luc2 cells, γ-counting
Protocol: The 4T1-Luc2 cells were cultured in RPMI-1640 medium containing 10% fetal bovine, penicillin (100 U/mL), and streptomycin ([…]) 37 °C under a humidified atmosphere with 5% CO2. The cells were seeded in 24 well plates (1 × 10^5 cells per well). The next day, the cells were killed with EtOH (70%, 50 μL) or kept alive and incubated for 30 min at 37 °C with 100 nM of the NACAs in culturing medium. The plate was then imaged on an Odyssey (Li-Cor, 800 nm laser intensity 5.0).
Similarly, these killed and alive cells were incubated with the indium-111 labeled NACAs (100 nM, 2.5 MBq/nmol) in culturing medium. The cells were washed with PBS and collected with NaOH (1.0 M) for γ-counting. These experiments were performed as triplicates.

CC1(C)C(=CC=C2CCCC(C=CC3=[N+](CCCCCC(=O)NCCCC[C@H](NC(=O)CCCc4ccc(I)cc4)C(=O)NCc4ccc(CNC(=O)CN5CCN(CC(=O)[O-])CCN(CC(=O)[O-])CCN(CC(=O)[O-])CC5)cc4)c4ccc(S(=O)(=O)O)cc4C3(C)C)=C2Oc2ccc(S(=O)(=O)O)cc2)N(CCCCS(=O)(=O)O)c2ccc(S(=O)(=O)O)cc21.[111In+3] [[^111In]3]
radioactive tumor uptake in the SPECT images (4T1-Luc2 tumors): 3.83 ± 0.19 %ID/mL | tumor uptake of [111In]3 (EMT6-Luc2 tumors): 2.81 ± 0.21 %ID/g | tumor uptake of [111In]3 (MCF7-Luc2 tumors; after doxorubicin treatment (5 mg/kg i.v., 3 injections)): 2.25 ± 0.16 %ID/g | tumor uptake of [111In]3 (MCF7-Luc2 tumors; after saline treatment (control)): 1.74 ± 0.08 %ID/g | dead/alive cell binding, radioactivity (4T1-Luc2 cells): increased as compared to [^111In]1
